Laboratory results as given in ChEMBL document CHEMBL1201862, “PubChem BioAssay data set” (2004).
Activity calls are given as the source filed them. Rule as the data show it, for most assays here: actives have a measured EC50 and inactives only a lower limit.

Columns and labels:
[1] = target: T1, Heat shock factor protein 1 (Mus musculus, UniProt P38532); assay: HSF1 potentiators in luciferase reporter cells, confirmation, cell-based, NIH3T3, luminescence, dose retest (AID 435004); format: functional;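 also: stress induced by proteasome inhibitor MG132 added 30 min after compound; luciferase reporter driven by HSF1 response element in NIH3T3 cells; actives raise luminescence as potentiators of the MG132 stress response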
T1 sequence (P38532 whole entry): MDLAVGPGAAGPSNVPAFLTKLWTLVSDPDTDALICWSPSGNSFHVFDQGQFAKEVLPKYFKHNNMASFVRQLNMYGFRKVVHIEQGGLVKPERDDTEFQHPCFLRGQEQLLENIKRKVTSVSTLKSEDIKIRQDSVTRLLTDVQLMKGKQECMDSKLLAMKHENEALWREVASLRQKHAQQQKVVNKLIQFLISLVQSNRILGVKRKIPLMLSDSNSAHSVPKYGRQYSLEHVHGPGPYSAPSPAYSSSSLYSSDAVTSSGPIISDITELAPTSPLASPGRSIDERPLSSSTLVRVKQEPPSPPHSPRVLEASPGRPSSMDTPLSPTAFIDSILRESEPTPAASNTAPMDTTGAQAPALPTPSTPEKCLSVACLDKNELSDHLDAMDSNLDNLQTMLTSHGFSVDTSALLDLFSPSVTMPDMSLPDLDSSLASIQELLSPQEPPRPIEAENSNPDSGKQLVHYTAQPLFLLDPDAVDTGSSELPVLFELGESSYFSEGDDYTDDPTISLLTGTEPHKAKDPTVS

H9c2 = assay: cells; format: functional, cell-based; settings: Rattus norvegicus, H9c2, Myocardium;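 also: confirmatory concentration-response retest of ultra-high-throughput screening hits for modulation of myocardial damage; cell death induced by hydrogen peroxide oxidative stress; compound pretreatment for 60 min then peroxide exposure for 2 h; potency is for protecting the cells against peroxide damage rather than for killing them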
[2] = Luminescence Cell-Based Dose Confirmation HTS to Identify Inhibitors of Platelet Dense Granule Release. [Related pubchem assays: 1663 (Primary HTS), 1678 (Summary of Project)]; format: functional
[3] = target: Luciferin 4-monooxygenase (Photinus pyralis, UniProt P08659); assay: firefly luciferase enzyme inhibitors, dose response, biochemical, luminescence (AID 1891)
Luciferin 4-monooxygenase, sequence (P08659 whole entry): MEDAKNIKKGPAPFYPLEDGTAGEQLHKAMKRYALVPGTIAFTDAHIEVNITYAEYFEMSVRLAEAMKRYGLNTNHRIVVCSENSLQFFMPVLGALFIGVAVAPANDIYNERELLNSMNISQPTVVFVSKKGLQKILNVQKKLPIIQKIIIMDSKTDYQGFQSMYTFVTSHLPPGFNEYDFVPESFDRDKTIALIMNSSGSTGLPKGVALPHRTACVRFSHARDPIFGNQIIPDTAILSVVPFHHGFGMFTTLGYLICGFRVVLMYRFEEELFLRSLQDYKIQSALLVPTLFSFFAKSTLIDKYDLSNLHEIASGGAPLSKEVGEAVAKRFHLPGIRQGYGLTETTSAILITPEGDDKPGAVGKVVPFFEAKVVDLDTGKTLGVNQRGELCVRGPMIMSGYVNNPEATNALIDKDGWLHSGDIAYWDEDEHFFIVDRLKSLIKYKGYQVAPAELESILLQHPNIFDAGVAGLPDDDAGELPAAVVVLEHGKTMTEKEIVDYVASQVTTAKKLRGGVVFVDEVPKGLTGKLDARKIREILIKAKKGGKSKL

[4] = Luminescence Cell-Based Dose Retest to Confirm Inhibitors of Cancer Stem Cells. [Related pubchem assays (depositor defined):AID2717, AID2721]; format: functional; settings: Homo sapiens
[5] = Luminescence Cell-Based Dose Response HTS to Identify Inhibitors of 5'UTR Stem-Loop Driven Prion Protein mRNA Translation in H4 Neuroglioblastoma Cells. [Related pubchem assays: 1827 (Project Summary), 1813 (Primary HTS)]; format: functional
[6] = inhibitors of SNCA 5'UTR-driven reporter translation, confirmation, H4 neuroglioma cells, luminescence (AID 1988); format: functional, cell-based
[7] = inhibitors of firefly luciferase expression or activity, dose response, H4 neuroglioma cells, luminescence (AID 1990); format: functional, cell-based
Cytochrome P450 1A2 = target: T2, Cytochrome P450 1A2 (Homo sapiens, UniProt P05177);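 also: PubChem cytochrome P450 panel assay, CYP1A2 panel member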
T2 sequence (P05177 whole entry): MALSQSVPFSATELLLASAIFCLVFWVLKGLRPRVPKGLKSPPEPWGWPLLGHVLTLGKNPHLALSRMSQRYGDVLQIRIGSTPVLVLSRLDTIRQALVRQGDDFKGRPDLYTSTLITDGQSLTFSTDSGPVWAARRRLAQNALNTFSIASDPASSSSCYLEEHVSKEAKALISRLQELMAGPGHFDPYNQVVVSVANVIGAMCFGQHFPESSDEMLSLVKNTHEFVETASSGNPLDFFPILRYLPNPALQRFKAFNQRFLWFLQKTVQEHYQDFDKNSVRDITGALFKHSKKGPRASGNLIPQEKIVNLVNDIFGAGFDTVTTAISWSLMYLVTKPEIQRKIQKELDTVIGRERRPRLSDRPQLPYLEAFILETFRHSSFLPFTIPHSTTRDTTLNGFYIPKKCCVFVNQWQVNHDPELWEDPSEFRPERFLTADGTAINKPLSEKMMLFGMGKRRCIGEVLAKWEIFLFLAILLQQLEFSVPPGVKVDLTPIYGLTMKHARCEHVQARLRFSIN

INS1 = assay: beta cell apoptosis inhibitors, cytokine rescue, dose response, luminescence, retest (AID 449756); format: functional, cell-based; settings: Rattus norvegicus;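 also: cell death triggered by IL-1 beta plus TNF-alpha plus IFN-gamma mixture; protective hits raise ATP signal compared with cytokine alone wells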
Streptokinase A = target: T3, Streptokinase A (Streptococcus pyogenes serotype M1, UniProt P10520); assay: S. pyogenes streptokinase expression inhibitors, potency, dose response, plasminogen activation absorbance, OD405 (AID 1914); format: functional, Streptococcus pyogenes M1 GAS;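 also: secreted streptokinase activity via plasminogen activation per viability signal from cell pellet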
T3 sequence (P10520 whole entry): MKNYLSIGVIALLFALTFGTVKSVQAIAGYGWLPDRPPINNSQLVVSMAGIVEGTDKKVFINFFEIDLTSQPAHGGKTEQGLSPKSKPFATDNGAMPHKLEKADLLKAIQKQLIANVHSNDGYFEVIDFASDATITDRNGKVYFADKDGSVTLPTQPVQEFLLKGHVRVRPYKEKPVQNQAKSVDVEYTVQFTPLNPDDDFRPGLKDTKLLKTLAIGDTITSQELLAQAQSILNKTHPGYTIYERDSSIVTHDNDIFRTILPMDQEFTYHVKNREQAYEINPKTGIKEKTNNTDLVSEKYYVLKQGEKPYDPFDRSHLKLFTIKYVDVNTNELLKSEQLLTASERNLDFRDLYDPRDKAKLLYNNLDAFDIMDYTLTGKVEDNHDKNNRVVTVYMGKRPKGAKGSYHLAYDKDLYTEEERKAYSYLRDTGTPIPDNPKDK

[8] = system: Streptococcus sp. 'group A'; assay: growth inhibition of control SK(-) GAS strain, dose response, counter-screen for streptokinase expression inhibitor project, luminescence, kanamycin, BacTiterGlo, confirmation (AID 1900); format: functional, organism-based
Streptococcus = assay: Group A Streptococcus viability loss, dose response, counter-screen for streptokinase expression inhibitor project, luminescence, BacTiterGlo (AID 1915); format: functional, organism-based;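 also: potency for reduction of bacterial viability or growth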
[9] = inhibitors of intracellular T. cruzi replication, confirmation, NIH3T3 host cells, beta-gal luminescence (AID 2044); format: functional, cell-based;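 also: intracellular parasites grown in NIH/3T3 mouse fibroblasts as host cells; luminescent beta-galactosidase reporter signal from transgenic T. cruzi replicating inside host cells; inhibitors lower the luminescence signal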
[10] = cytotoxicity toward NIH3T3 fibroblasts, dose response, counter-screen, cell-based, ATP luminescence, mouse fibroblasts (AID 2010); format: functional;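 also: cells exposed to compound for about 90 hours before reading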
Cytochrome P450 2D6 = Cytochrome P450 2D6 (Homo sapiens, UniProt P10635);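 also: CYP2D6 member of a cytochrome P450 panel assay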
Cytochrome P450 2D6, sequence (P10635 whole entry): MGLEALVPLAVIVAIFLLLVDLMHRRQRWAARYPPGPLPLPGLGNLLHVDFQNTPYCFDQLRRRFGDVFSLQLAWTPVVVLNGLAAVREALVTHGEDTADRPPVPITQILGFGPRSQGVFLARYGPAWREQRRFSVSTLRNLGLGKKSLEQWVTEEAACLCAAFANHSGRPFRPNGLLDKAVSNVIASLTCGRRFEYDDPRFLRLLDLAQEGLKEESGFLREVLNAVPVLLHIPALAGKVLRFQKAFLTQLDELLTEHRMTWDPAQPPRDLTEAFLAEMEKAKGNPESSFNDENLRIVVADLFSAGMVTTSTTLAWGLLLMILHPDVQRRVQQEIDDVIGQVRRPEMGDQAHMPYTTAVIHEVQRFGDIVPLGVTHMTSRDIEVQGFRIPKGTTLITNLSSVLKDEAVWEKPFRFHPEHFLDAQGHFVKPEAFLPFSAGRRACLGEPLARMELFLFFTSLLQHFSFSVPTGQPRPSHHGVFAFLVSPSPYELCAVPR

Cytochrome P450 3A4 = Cytochrome P450 3A4 (Homo sapiens, UniProt P08684);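 also: CYP3A4 tested as one member of a cytochrome P450 panel screen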
Cytochrome P450 3A4, sequence (P08684 whole entry): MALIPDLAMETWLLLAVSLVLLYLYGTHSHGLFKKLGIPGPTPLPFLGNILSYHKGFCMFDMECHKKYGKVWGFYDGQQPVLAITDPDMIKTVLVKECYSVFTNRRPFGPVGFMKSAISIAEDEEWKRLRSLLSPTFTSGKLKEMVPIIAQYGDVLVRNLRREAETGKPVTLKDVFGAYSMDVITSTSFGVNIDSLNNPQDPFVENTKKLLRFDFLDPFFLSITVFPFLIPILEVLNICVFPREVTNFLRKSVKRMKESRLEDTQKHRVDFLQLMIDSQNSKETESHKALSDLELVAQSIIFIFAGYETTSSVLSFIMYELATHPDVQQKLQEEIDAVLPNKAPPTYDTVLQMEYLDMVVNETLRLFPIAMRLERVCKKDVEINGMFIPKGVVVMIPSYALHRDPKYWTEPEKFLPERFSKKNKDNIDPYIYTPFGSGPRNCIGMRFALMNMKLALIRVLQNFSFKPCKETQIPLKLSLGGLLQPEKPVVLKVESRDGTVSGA

[11] = target: T1, Heat shock factor protein 1; assay: inhibition of MG132-induced HSE-luciferase signal, confirmation, cell-based, NIH3T3, luminescence, dose retest (AID 2382); format: functional;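 also: NIH3T3 fibroblasts with HSF1-driven luciferase reporter stressed by proteasome inhibitor MG132; luminescence from HSF1-driven luciferase expression after 8 hours of MG132 stress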

Compound: CC(=O)NCCC(=O)Nc1nc(-c2cccs2)c(-c2cccs2)s1
- EC50 [1]: > 260 µM (inactive)

Compound: CC/C(C)=N\N=C\c1c(O)n(CC)c2cc(C3=NNC(=O)CC3)ccc12
- IC50 (H9c2): 11.9 µM (active)
- EC50 [2]: 6.14 µM (active)
- EC50 [3]: > 112 µM (not active)

Compound: COc1nc(N2CCCCCC2)nc(N2CCCCCC2)n1
- AC50 [4]: 6.21 µM (active)

Compound: COc1ccc(/C=N/NC(=O)C2C3CCCCC32)cc1OC (centres undefined)
- EC50 [5]: > 120 µM (not active)
- EC50 [6]: 67.5 µM (active)
- EC50 [7]: > 120 µM (not active)

Compound: COC(=O)N1C(=O)[C@@](c2ccccc2)(C2CCCC2)N1C(=O)OC
- EC50 [1]: 14.9 µM (active)

Compound: COCCN1CN=C(Nc2nc3ccccc3o2)NC1
- AC50 (Cytochrome P450 1A2): 22.4 µM (inconclusive)
- EC50 [2]: > 112 µM (not active)
- EC50 [3]: > 112 µM (not active)

Compound: COC1=C(Nc2ccccc2OC)C(=O)c2ccccc2C1=O
- AC50 (INS1): 38.3 µM (active)

Compound: O=C(Nc1cccc(-c2csc(Nc3cccc(C(F)(F)F)c3)n2)c1)c1ccccc1
- EC50 (Streptokinase A): > 150 µM (not active)
- EC50 [8]: 4.47 µM (active)
- EC50 (Streptococcus): 6.3 µM (active)
- AC50 [4]: 1.6 µM (active)

Compound: CCOC(=O)C1=C(C)N=c2s/c(=C\C(=O)OC)c(=O)n2C1c1ccc(OC)cc1 (centres undefined)
- EC50 [1]: 10.1 µM (active)

Compound: CC(C)(C)c1ccc(Oc2ccc(NC(=O)c3cccs3)cn2)cc1
- AC50 [4]: 3.9 µM (active)

Compound: COc1ccccc1-c1c(C(F)(F)F)oc2cc(OCC(=O)Nc3cc(C)ccc3C)ccc2c1=O
- EC50 [5]: > 120 µM (not active)
- EC50 [6]: > 120 µM (not active)
- EC50 [7]: > 120 µM (not active)

Compound: Cn1nnc2c[n+](CC(=O)c3ccc4ccccc4c3)cc(Br)c21
- EC50 [1]: 12.2 µM (active)

Compound: Cc1cc(-c2csc3ncnc(S)c23)cc(C)c1C
- EC50 [8]: 1.31 µM (active)
- EC50 (Streptococcus): 4.06 µM (active)
- AC50 [4]: 12.8 µM (active)

Compound: CCN(CC(=O)Nc1ccc(NC(C)=O)cc1)Cc1c(O)ccc2cc(Br)ccc12
- EC50 [1]: 8.46 µM (active)

Compound: COc1ccc(/N=C/C2=C(O)c3ccccc3C2=O)cc1
- EC50 [2]: 3.93 µM (active)
- EC50 [3]: 0.576 µM (active)

Compound: O=C1c2c(Br)c(Br)c(Br)c(Br)c2C(=O)N1c1ccccn1
- AC50 [4]: 1.95 µM (active)

Compound: CN(C)c1nc(NC(C)(C)C)nc(SCC(=O)Nc2ccccc2)n1
- EC50 [1]: > 260 µM (inactive)

Compound: CCCCNc1c(-c2ccc(SC3CCCCC3)cc2)nc2ccccn12
- EC50 (Streptokinase A): > 150 µM (not active)
- EC50 [9]: 1.2 µM (active)
- EC50 [8]: 8.18 µM (active)
- AC50 (INS1): 5.33 µM (active)
- EC50 (Streptococcus): 8.23 µM (active)
- EC50 [10]: > 30 µM (not active)

Compound: Oc1cccc(-c2nc3c4c(ncn3n2)-c2ccccc2CC42CCCC2)c1
- AC50 (Cytochrome P450 2D6): 0.631 µM (inconclusive)
- AC50 (Cytochrome P450 3A4): 22.4 µM (inconclusive)
- AC50 [4]: 1.16 µM (active)

Compound: Cc1nc(O)nc(O)c1/C=C/C(=O)OCC(C)C
- EC50 [5]: > 120 µM (not active)
- EC50 [6]: 15.5 µM (active)
- EC50 [7]: 22.7 µM (active)

Compound: O=[N+]([O-])CC(c1ccccc1)c1c(O)n[nH]c1-c1ccccc1O (centres undefined)
- EC50 [1]: 131 µM (active)

Compound: CC1CCN(Cc2c(C(=O)N/N=C/c3ccc(C(C)(C)C)cc3)nnn2-c2nonc2N)CC1
- EC50 [5]: 14.1 µM (active)
- EC50 [6]: > 120 µM (not active)
- EC50 [7]: 9.56 µM (active)

Compound: CCc1cc(CNC(=O)c2ccc3nc(Cc4ccc(OC)c(OC)c4)oc3c2)on1
- AC50 (INS1): 3.62 µM (active)

Compound: O=C(NCc1cccs1)c1csc2ccccc12
- EC50 [2]: > 112 µM (not active)
- EC50 [3]: > 112 µM (not active)

Compound: Cc1onc(-c2ccccc2)c1C(=O)N/N=C/c1cccc(O)c1
- EC50 [1]: > 260 µM (inactive)

Compound: O=C1CC(c2cccc(Cl)c2)c2cc3c(cc2N1)CCC3 (centres undefined)
- EC50 [5]: 11.9 µM (active)
- EC50 [6]: 6.74 µM (active)
- EC50 [7]: > 120 µM (not active)

Compound: CCCCN=C(S)N(Cc1ccco1)Cc1cc2cc3c(cc2nc1O)OCCO3
- EC50 [1]: > 260 µM (inactive)

Compound: CCOC(=O)c1nn(-c2ccc3c(c2)CCN3C(C)=O)cc1O
- EC50 [2]: > 112 µM (not active)
- EC50 [3]: > 112 µM (not active)

Compound: CCOc1ccc(C2C3=C(O)CCCC3=Nc3ccc4ncccc4c32)cc1 (centres undefined)
- EC50 [1]: 14.1 µM (active)

Compound: COc1ccc2oc(=O)c(C(=O)N3CCCC3)cc2c1
- EC50 [2]: > 112 µM (not active)
- EC50 [3]: > 112 µM (not active)

Compound: Cc1ccc(-n2c(SCC(=O)Nc3cc(S(=O)(=O)N4CCOCC4)ccc3Cl)nc3ccccc3c2=O)cc1
- EC50 [1]: > 260 µM (inactive)

Compound: COC(=O)/C(=C\Nc1ccccc1N)c1ncc(C(F)(F)F)cc1Cl
- EC50 [1]: > 260 µM (inactive)

Compound: COC(=O)c1ccc(CSc2nnc(N)s2)cc1
- EC50 [2]: > 112 µM (not active)
- EC50 [3]: > 112 µM (not active)

Compound: COc1ccc(C(=O)N2CCCC(c3nc(-c4ccc(OC)c(OC)c4)no3)C2)c(OC)c1 (centres undefined)
- EC50 [2]: > 112 µM (not active)
- EC50 [3]: > 112 µM (not active)

Compound: COc1ccc(OCC(=O)Nc2nc3ccccc3[nH]2)cc1
- EC50 [2]: > 112 µM (not active)
- EC50 [3]: > 112 µM (not active)

Compound: Cc1ccc(NC(=O)c2cc3c(=O)oc4ccccc4c3s2)nc1
- EC50 [1]: > 260 µM (inactive)

Compound: O=C1c2cccnc2Oc2ccc(Cl)cc2N1Cc1ccc(F)cc1
- IC50 (H9c2): > 79 µM (inactive)
- EC50 [11]: > 195 µM (not active)

Compound: Cc1cc(OCc2cc(C(=O)N3CCC(Oc4cccnc4)CC3)no2)cc(C)c1Cl
- AC50 [4]: 7.55 µM (active)

Compound: COC(=O)c1sccc1NC(=O)Nc1cccc(OC)c1
- EC50 [2]: 4.37 µM (active)
- EC50 [3]: 1.31 µM (active)

Compound: Cc1ccc(-n2nc3c(N4CCC(C(=O)NCCc5ccccc5C)CC4)nnc(C)c3c2C)cc1
- EC50 [9]: 0.941 µM (active)
- EC50 [5]: 39.8 µM (active)
- EC50 [6]: > 120 µM (not active)
- EC50 [7]: 9.7 µM (active)
- EC50 [10]: 6.26 µM (active)
